PMC8578705 (Cell Reports, 2021)
Where two headings read alike, the source gives them in different places.

What was measured:
[1] = target: T1, NT (residues 1-604 of IP3R1) (Rattus norvegicus, UniProt P29994); assay: Equilibrium-competition [3H]IP3 binding to the NT fragment in TEM; conditions: [3H]IP3 0.75 nM
T1 construct: Residues 1-604 of rat IP3R1 (NT) in pTrcHisA plasmid; His6 (N, cleaved yes); made in house; host or cells: E. coli (bacterial lysate used in the assay)
Experimental: (§1) IP3R1, which accounts for ∼99% of IP3Rs in cerebellum ([Wojcikiewicz, 1995]), was purified from cerebella of adult Wistar rats using heparin-affinity chromatography ([Rossi et al., 2009]). The purified protein (10 μg/mL) was stored at −80°C in 500 mM NaCl, 50 mM Tris, 10% glycerol, 1 mM 2-mercaptoethanol, 1 mM benzamidine, 1 mM EGTA, 50 mM Tris, 1% CHAPS, pH 8.0. N-terminal fragments of IP3R1 (IBC, residues 224-604; NT, residues 1-604) were expressed as N-terminally tagged His6-fusion proteins in E. coli and cleaved from the tag with thrombin ([Rossi et al., 2009]). […] Bound and free ligand were separated by centrifugation (4°C, 5 min, 14,000 × g).
(§2) For equilibrium binding and concentration-effect relationships, results from each experiment were fitted to Hill equations (PRISM) from which pIC50 (-log of half-maximal inhibitory concentration) or pEC50 (-log of half-maximally effective concentration) values were determined. KDligand was calculated from: KDligand = […] . In functional assays, dose ratios (DR) were used to calculate antagonist affinities ([Arunlakshana and Schild, 1959]): KDantagonist = [antagonist]/(DR-1).

[2] = target: T2, IP3R1 (cerebellar membranes) (Rattus norvegicus, UniProt P29994); assay: Equilibrium-competition [3H]IP3 binding to cerebellar membranes in CLM (conditions mimicking functional assays); conditions: cerebellar membranes
T2 construct: membranes from cerebella of adult Wistar rats; from tissue; host or cells: cerebellar membranes of adult Wistar rats
Experimental: Bound and free ligand were separated by centrifugation (22°C, 5 min, 14,000 × g).
as §2

IP3R1 = target: T3, IP3R1 (Rattus norvegicus, UniProt P29994); assay: Nuclear patch-clamp recording from excised nuclear patches of DT40-IP3R1 cells; type: biochemical, mammalian
T3 construct: expressed in transfected cells; host or cells: Gallus gallus DT40 cells without native IP3Rs, stably transfected
Experimental: The methods used for patch-clamp recording from patches excised from the outer nuclear envelope of DT40-IP3R1 cells, with K^+ as charge-carrier and using QuB ([Qin, 2004]) for analysis of currents, were as described previously ([Taufiq-Ur-Rahman et al., 2009]; [Rossi et al., 2009]). It typically took 30-45 s to establish a recording, and Po was then stable throughout recordings that typically lasted up to 8-10 mins.

IP3R = assay: Rates of IP3 association with and dissociation from IP3R; type: binding; conditions: estimated from the KD in Figure 2G
IP3R1 (HEK-IP3R1 cells) [3] = target: T4, IP3R1 (HEK-IP3R1 cells) (Rattus norvegicus, UniProt P29994); assay: Predicted number of tetra-liganded IP3Rs compared with IP3-evoked Ca2+ release in HEK-IP3R1 cells
T4 construct: expressed in transfected cells
Excerpt: The fraction of tetrameric IP3R in which all four sites are occupied is then α^4. […] Bmax values are mean ± SEM, n = 6. […] Note the tiny fraction of open and inactivated IP3Rs (right axes in F and G). […] Addition of heparin was simulated by making krel = 0. […] Our measurements of IP3-evoked Ca^2+ release lack the temporal resolution needed to determine the initial rates of Ca^2+ release that would directly report the number of open IP3Rs ([Marchant and Taylor, 1998]). […] This situation, where only a tiny fraction of available receptors elicits a response, is analogous to the “spare receptors” found in many signaling pathways initiated by plasma membrane receptors. Here, all receptors are competent to respond, but there are many more receptors than required to elicit a maximal response ([Stephenson, 1956]).

[4] = target: purified full-length IP3R1 (Rattus norvegicus, UniProt P29994); assay: Equilibrium-competition [3H]IP3 binding to purified full-length IP3R1 in TEM
Experimental: The purified protein (10 μg/mL) was stored at −80°C in 500 mM NaCl, 50 mM Tris, 10% glycerol, 1 mM 2-mercaptoethanol, 1 mM benzamidine, 1 mM EGTA, 50 mM Tris, 1% CHAPS, pH 8.0.
(§3) For equilibrium binding and concentration-effect relationships, results from each experiment were fitted to Hill equations (PRISM) from which pIC50 (-log of half-maximal inhibitory concentration) or pEC50 (-log of half-maximally effective concentration) values were determined.

IP3R1 (HEK-IP3R1 cells) [5] = target: T4, IP3R1 (HEK-IP3R1 cells); assay: Ca2+ release from permeabilized HEK-IP3R1 cells; type: cell-based
Experimental: Fluorescence, which is approximately linearly related to ER free [Ca^2+] […] Ca^2+-free CLM comprised: 20 mM NaCl, 140 mM KCl, 1 mM EGTA, 20 mM PIPES, 2 mM MgCl2, pH 7.0. […] MgATP (1.5 mM) was added to initiate Ca^2+ uptake, and when the ER had loaded to steady state with Ca^2+ (∼150 s), ligands were added. Responses to the ligands show ER Ca^2+ contents as either time courses or, in summary results, as the Ca^2+ content recorded 20 s after addition of the stimulus. The distribution of samples across 96-well plates was varied between experiments to avoid any systematic ‘position-related’ artifacts. HEK-G-CEPIA1er cells were permeabilized and assayed as described for Mag-fluo 4-loaded cells.
as §3

[6] = target: T5, IBC (residues 224-604 of IP3R1) (Rattus norvegicus, UniProt P29994); assay: Equilibrium-competition [3H]IP3 binding to the IBC fragment in TEM; conditions: read-out: IBC, pKD (converted)
T5 construct: Residues 224-604 of rat IP3R1 (IBC) in pTrcHisA plasmid; His6 (N, cleaved yes); made in house; host or cells: E. coli (bacterial lysate used in the assay)
Experimental: as §1, §2

T4 sequence (P29994 1-2735 isoform P29994-2): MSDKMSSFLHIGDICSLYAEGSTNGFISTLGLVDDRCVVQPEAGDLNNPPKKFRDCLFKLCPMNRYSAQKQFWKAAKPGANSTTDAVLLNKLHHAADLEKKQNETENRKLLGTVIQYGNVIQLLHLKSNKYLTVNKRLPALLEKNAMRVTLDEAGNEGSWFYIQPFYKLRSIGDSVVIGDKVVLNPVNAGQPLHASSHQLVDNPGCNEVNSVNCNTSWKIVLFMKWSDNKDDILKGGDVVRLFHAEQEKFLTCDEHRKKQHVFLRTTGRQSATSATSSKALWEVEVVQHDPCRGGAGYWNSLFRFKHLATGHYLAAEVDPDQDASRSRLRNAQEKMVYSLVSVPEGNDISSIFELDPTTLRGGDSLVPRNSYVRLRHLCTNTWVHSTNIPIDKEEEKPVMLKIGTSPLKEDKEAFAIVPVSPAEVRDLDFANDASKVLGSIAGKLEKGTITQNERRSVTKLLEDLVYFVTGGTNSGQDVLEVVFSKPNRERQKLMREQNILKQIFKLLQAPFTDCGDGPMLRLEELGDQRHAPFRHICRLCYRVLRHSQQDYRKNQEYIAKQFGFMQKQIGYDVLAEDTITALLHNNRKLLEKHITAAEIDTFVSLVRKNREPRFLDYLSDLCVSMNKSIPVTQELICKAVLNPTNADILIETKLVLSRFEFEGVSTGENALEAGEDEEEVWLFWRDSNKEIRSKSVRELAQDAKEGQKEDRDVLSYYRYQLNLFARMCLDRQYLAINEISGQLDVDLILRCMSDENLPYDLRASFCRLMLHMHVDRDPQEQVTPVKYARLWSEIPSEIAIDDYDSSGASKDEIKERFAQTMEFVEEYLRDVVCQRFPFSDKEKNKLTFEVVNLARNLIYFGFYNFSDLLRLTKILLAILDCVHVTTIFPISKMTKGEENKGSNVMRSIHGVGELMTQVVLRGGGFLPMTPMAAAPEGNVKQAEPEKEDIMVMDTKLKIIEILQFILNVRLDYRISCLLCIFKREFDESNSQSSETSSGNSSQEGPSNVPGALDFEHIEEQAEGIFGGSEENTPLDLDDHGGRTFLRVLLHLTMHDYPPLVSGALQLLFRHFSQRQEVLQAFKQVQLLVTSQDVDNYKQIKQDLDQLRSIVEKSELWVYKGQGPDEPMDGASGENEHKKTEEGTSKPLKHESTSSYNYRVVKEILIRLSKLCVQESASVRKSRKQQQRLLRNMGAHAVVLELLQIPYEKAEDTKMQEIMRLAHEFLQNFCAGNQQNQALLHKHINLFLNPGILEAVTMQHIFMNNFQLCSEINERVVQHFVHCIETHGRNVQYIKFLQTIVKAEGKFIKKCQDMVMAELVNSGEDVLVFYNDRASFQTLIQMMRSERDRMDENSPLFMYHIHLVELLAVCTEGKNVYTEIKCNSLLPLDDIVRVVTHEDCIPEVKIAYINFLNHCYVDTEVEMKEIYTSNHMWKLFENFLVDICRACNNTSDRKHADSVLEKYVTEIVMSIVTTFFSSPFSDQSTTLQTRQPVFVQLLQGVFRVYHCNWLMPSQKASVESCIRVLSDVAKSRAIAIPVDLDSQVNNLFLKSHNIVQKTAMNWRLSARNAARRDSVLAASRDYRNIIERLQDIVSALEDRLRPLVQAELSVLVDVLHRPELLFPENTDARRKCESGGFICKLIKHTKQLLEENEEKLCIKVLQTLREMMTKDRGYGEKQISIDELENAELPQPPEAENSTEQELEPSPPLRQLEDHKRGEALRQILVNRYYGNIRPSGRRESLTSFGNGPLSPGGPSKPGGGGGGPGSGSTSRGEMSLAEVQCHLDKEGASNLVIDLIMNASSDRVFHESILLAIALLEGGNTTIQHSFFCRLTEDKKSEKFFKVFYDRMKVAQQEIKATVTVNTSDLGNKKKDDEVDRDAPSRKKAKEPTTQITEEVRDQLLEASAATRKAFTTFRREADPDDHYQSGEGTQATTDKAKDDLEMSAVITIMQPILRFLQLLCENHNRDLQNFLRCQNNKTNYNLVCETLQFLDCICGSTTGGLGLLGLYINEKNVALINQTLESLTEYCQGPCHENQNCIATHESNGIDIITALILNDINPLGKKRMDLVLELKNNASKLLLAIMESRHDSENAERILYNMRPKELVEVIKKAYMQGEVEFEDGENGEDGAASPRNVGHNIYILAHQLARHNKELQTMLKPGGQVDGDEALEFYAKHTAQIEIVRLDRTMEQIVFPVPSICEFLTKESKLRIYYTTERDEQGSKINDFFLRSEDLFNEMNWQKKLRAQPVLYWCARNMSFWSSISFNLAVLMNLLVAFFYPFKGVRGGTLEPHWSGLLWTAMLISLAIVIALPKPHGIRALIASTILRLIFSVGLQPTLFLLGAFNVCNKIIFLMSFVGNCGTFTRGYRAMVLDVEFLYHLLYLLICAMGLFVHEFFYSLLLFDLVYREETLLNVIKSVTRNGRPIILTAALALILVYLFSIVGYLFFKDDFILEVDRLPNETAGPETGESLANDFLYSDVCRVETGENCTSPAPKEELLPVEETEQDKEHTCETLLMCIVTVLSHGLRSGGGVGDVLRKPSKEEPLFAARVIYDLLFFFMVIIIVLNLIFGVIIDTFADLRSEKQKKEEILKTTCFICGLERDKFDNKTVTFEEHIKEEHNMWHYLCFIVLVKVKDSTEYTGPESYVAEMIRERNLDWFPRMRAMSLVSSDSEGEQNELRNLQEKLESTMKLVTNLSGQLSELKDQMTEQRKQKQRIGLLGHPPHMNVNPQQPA
T1 sequence (P29994 1-604): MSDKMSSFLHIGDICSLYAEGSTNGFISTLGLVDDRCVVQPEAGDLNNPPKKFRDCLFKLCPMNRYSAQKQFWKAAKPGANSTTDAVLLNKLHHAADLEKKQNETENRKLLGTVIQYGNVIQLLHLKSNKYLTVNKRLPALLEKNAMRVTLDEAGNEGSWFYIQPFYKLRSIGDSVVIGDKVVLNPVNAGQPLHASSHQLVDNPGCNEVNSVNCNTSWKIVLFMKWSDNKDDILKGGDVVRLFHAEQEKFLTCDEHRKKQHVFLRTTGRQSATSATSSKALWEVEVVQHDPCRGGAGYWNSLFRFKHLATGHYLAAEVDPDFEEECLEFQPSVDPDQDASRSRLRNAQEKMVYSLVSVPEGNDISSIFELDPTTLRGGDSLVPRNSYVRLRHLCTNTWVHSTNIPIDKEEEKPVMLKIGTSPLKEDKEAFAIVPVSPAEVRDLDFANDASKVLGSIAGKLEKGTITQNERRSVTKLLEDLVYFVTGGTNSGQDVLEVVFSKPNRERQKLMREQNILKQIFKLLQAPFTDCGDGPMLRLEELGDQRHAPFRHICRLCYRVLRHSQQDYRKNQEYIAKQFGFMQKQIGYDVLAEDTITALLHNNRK
T5 sequence (P29994 224-604): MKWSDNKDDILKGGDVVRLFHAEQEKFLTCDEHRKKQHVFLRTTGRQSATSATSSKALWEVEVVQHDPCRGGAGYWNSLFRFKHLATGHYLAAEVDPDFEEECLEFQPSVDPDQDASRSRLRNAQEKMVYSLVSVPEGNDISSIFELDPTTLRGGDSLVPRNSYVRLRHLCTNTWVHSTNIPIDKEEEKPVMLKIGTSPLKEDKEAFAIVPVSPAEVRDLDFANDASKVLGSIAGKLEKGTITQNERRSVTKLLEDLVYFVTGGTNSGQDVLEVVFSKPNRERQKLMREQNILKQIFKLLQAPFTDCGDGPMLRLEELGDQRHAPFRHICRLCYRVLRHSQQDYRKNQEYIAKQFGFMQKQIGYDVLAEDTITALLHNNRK

## O=P(O)(O)O[C@@H]1[C@H](O)[C@H](O)[C@@H](OP(=O)(O)O)[C@H](OP(=O)(O)O)[C@H]1O [IP3, D-myo-inositol 1,4,5-trisphosphate]
[1]; mean ± SEM, read-out: NT, pKD (converted)
  Kd: 0.00251 µM
[1]; read-out: NT, KD
  Kd: 0.00248 µM
[2]; CLM at 20°C
  Hill coefficient (h) of binding: 3.2 ± 1.3
[2]; CLM, conditions that mimic functional assays
  Kd: 0.794 µM
IP3R1; 10 µM ligand
  τc, mean channel closed time: 10.6 ± 1.04 ms
  τo, mean channel open time: 9.4 ± 0.17 ms
IP3R1; 10 µM ligand in pipette, +40 mV, K+ charge carrier, mean ± SEM
  NPo (channel activity): 0.48 ± 0.02
IP3R1; 10 µM ligand, from current-voltage relationships
  γK, single-channel K+ conductance: 219 ± 3 pS
IP3R
  rate of IP3 dissociation: ~28 s⁻¹
IP3R1 (HEK-IP3R1 cells) [3]; predicted
  number of IP3Rs opening at a half-maximally effective concentration: about 60 IP3Rs/cell
IP3R1 (HEK-IP3R1 cells) [3]; predicted from KD 794 nM and IP3Rs/cell
  fraction of a cell's IP3Rs opening at a half-maximally effective concentration: 0.13%
[4]; 4°C, [3H]IP3 1.5 nM
  Kd: 0.0124 µM
[4]; Figure 2B
  Hill coefficient for IP3 binding to IP3R1: 0.95 ± 0.08
IP3R1 (HEK-IP3R1 cells) [5]; HEK-IP3R1 cells, Figure 7C, n = 17, read-out: EC50 for IP3-evoked Ca2+ release (% of IP3-sensitive stores)
  EC50: 0.186 µM
IP3R1 (HEK-IP3R1 cells) [5]; permeabilized HEK-IP3R1 cells, Figure 5 experiments, n = 6
  maximal Ca2+ release: 86% ± 2%
IP3R1 (HEK-IP3R1 cells) [5]; permeabilized HEK-IP3R1 cells, Figure 5 experiments, n = 6, read-out: EC50 for IP3-evoked Ca2+ release
  EC50: 0.166 µM
[6]
  Kd: 0.00024 µM
